Laboratory results as given in patent US20070197643A1, “USE OF (Z)-2-CYANO-3-HYDROXY-BUT-2-ENOIC ACID-(4'-TRIFLUOROMETHYLPHENYL)-AMIDE FOR TREATING INFLAMMATORY BOWEL DISEASE” (AVENTIS PHARMACEUTICALS INC., priority 2004, published 2007).

Tests used:
[1] = amount entering the intestinal lumen after administration; assay type: in vivo; settings: following administration of teriflunomide
[2] = biological target: dihydrooate dehydrogenase (Homo sapiens, UniProt Q02127); settings: enzyme essential for the synthesis of pyrimidines; cited from earlier work
Chain of dihydrooate dehydrogenase (Q02127 whole entry): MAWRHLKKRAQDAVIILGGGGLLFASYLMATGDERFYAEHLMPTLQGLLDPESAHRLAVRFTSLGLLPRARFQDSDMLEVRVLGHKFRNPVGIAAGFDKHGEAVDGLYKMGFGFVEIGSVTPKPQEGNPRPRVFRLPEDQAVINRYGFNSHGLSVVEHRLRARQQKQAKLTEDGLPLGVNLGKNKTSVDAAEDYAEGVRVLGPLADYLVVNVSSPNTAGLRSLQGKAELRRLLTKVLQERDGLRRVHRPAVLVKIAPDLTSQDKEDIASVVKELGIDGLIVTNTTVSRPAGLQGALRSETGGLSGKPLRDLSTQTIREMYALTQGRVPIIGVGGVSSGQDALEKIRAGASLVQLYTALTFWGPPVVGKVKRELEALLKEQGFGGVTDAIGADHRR

[3] = tested on: immune cells and cell lines; settings: wide variety of immune cells and cell lines; cited from earlier work
inflammation = settings: animal models of inflammation; cited from earlier work
multiple sclerosis = settings: in vivo; cited from earlier work
Crohn's disease = settings: small number of patients with azathioprine intolerance; cited from earlier work

Q: Which “amount of teriflunomide entering the intestinal lumen” value [1] does the source give for `C/C(O)=C(\C#N)C(=O)Nc1ccc(C(F)(F)F)cc1` [Teriflunomide, (Z)-2-cyano-3-hydroxy-but-2-enoic acid-(4′-trifluoromethylphenyl)-amide] here?
A: high amounts

Q: And the “inhibition of dihydrooate dehydrogenase” value [2]?
A: inhibits

Q: What about the antiproliferative effects [3] of the same compound?
A: antiproliferative effects

Q: And the anti-inflammatory activity (inflammation)?
A: anti-inflammatory activity

Q: What about the “efficacy in preclinical models of multiple sclerosis” value (multiple sclerosis) of the same compound?
A: demonstrated efficacy

Q: Which “treatment of Crohn's disease” value (Crohn's disease) does the source give for `Cc1oncc1C(=O)Nc1ccc(C(F)(F)F)cc1` [leflunomide, 5-methylisoxazole-4-carboxylic-(4-trifluoromethyl)-anilide] here?
A: successful use
